Counter-ions that a name gives are not always drawn.
Biological target: Proton Pump (H^+/K^+-ATPase) (Sus scrofa, UniProt P19156)
Assay: Inhibitory effects on proton pump (H^+/K^+-ATPase) activity
Type: biochemical
Conditions: hog gastric vesicles; K^+ stimulated H^+/K^+-ATPase activity; 30 minutes at 37° C.

Proton Pump (H^+/K^+-ATPase), sequence (P19156 2-1034 limits assumed): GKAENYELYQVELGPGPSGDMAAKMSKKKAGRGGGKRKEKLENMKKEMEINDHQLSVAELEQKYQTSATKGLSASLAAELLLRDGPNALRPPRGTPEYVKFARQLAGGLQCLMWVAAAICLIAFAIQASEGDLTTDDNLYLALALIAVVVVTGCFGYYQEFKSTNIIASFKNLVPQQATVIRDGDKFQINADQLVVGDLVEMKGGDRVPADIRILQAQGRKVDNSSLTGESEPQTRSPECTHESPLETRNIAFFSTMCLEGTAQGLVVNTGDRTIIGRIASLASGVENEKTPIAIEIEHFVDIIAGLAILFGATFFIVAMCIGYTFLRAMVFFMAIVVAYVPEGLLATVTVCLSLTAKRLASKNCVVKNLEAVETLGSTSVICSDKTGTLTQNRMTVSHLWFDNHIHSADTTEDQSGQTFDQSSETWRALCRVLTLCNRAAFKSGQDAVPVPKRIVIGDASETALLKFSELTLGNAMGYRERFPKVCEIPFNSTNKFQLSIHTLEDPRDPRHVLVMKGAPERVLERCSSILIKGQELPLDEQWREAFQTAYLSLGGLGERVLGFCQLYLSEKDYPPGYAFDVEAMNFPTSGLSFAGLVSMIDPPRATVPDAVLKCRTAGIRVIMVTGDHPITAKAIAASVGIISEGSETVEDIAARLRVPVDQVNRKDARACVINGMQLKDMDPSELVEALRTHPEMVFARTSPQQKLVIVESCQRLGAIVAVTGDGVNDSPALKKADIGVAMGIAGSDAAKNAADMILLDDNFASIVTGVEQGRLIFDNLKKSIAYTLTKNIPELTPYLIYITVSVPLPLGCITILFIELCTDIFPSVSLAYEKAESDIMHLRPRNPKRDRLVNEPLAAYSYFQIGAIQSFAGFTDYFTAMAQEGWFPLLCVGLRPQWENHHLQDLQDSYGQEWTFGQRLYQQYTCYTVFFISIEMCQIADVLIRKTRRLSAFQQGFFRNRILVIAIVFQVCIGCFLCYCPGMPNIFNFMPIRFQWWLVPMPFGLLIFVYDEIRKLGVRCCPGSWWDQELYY
Proton Pump (H^+/K^+-ATPase), sequence (P18434 whole entry partner): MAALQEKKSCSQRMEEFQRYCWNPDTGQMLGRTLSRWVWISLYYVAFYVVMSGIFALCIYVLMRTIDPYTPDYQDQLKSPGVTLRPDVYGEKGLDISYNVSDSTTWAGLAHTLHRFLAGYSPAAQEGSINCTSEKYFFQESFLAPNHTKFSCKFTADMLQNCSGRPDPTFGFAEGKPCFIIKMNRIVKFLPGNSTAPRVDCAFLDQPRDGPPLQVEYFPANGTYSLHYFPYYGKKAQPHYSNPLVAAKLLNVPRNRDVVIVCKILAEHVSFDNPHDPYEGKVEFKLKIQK

Row | Molecule | IC50 [nM]
1 | [7-(3,4-dihydro-1H-isoquinolin-2-yl)-1-(3-fluorobenzyl)-2,3-dimethyl-1H-pyrrolo[2,3-c]pyridin-5-yl]-methylamine hydrochloride [Example 888] | 20
2 | Cc1c(C)n(CC(C)C)c2c(NCc3ccc(Cl)cc3)nccc12 [Example 209, 7-(4-chlorobenzylamino)-1-isobutyl-2,3-dimethyl-1H-pyrrolo[2,3-c]pyridine hydrochloride] | 66
3 | Cc1c(C)n(Cc2ccccc2)c2c(N3CCc4ccccc4C3C)nccc12 (centres unmarked) [Example 556, 2-(1-benzyl-2,3-dimethyl-1H-pyrrolo[2,3-c]pyridin-7-yl)-1-methyl-1,2,3,4-tetrahydroisoquinoline hydrochloride] | 130
4 | CC=CCn1c(C)c(C)c2ccnc(NCc3ccccc3)c21 [Example 183, 7-benzylamino-1-(but-2-enyl)-2,3-dimethyl-1H-pyrrolo[2,3-c]pyridine hydrochloride] | 220
5 | CCCn1c(C)c(C)c2ccnc(NCc3ccccc3Cl)c21 [Example 231, 7-(2-chlorobenzylamino)-2,3-dimethyl-1-propyl-1H-pyrrolo[2,3-c]pyridine hydrochloride] | 138
6 | C=Cc1ccc(-c2nccc3c(C)c(C)n(CCOC)c23)cc1 [Example 247, 1-(2-methoxyethyl)-2,3-dimethyl-7-(4-vinylphenyl)-1H-pyrrolo[2,3-c]pyridine hydrochloride] | 90
7 | Cc1c(C)n(Cc2ccccc2)c2c(N3CCc4ccccc4C3)nc(C(=O)O)cc12 [Example 733, 1-benzyl-7-(3,4-dihydro-1H-isoquinolin-2-yl)-2,3-dimethyl-1H-pyrrolo[2,3-c]pyridin-5-carboxylic acid] | 117
8 | Cc1c(C)n(CC(C)C)c2c(NCc3ccccc3)nccc12 [Example 184, 7-benzylamino-1-isobutyl-2,3-dimethyl-1H-pyrrolo[2,3-c]pyridine hydrochloride] | 240
9 | Cc1c(C)n(CCc2ccc(S(C)(=O)=O)cc2)c2c(N3CCc4ccccc4C3)nccc12 [Example 512, 1-[2-(4-methylsulfonylphenyl)ethyl]-7-(1,2,3,4-tetrahydroisoquinolin-2-yl)-2,3-dimethyl-1H-pyrrolo[2,3-c]pyridine hydrochloride] | 130
10 | Cc1c(C)n(Cc2ccccc2)c2c(NCc3ccc(F)cc3)nccc12 [Example 214, 1-benzyl-7-(4-fluorobenzylamino)-2,3-dimethyl-1H-pyrrolo[2,3-c]pyridine hydrochloride] | 290
11 | Cc1ccc(CNc2nccc3c(C)c(C)n(CC(C)C)c23)cc1 [Example 198, 1-isobutyl-2,3-dimethyl-7-(4-methylbenzylamino)-1H-pyrrolo[2,3-c]pyridine hydrochloride] | 64
12 | COc1cccc(Cn2c(C)c(C)c3ccnc(-c4ccc(C)cc4)c32)c1 [Example 278, 1-(3-methoxybenzyl)-2,3-dimethyl-7-(p-tolyl)-1H-pyrrolo[2,3-c]pyridine hydrochloride] | 390
13 | Cc1[nH]c2c(N3CCc4ccccc4C3C)nccc2c1C (centres unmarked) [Example 552, 2-(2,3-dimethyl-1H-pyrrolo[2,3-c]pyridin-7-yl)-1-methyl-1,2,3,4-tetrahydroisoquinoline hydrochloride] | 36
14 | Cc1c(CO)c2ccnc(-c3ccc4ccccc4c3)c2n1Cc1cccc(F)c1 [Example 411, 1-(3-fluorobenzyl)-3-hydroxymethyl-2-methyl-7-(naphthalen-2-yl)-1H-pyrrolo[2,3-c]pyridine hydrochloride] | 284
15 | COCCn1c(C)c(C)c2ccnc(N3CCc4ccccc4C3C)c21 (centres unmarked) [Example 555, 2-[1-(2-methoxyethyl)-2,3-dimethyl-1H-pyrrolo[2,3-c]pyridin-7-yl]-1-methyl-1,2,3,4-tetrahydroisoquinoline hydrochloride] | 230
16 | Cc1nc(Cn2c(C)c(C)c3ccnc(N4CCc5ccc(F)cc5C4C)c32)cs1 (centres unmarked) [Example 551, 2-[2,3-dimethyl-1-(2-methylthiazol-4-ylmethyl)-1H-pyrrolo[2,3-c]pyridin-7-yl]-7-fluoro-1-methyl-1,2,3,4-tetrahydroisoquinoline hydrochloride] | 320
17 | C=CCCn1c(C)c(C)c2ccnc(N(C)Cc3ccc(F)cc3)c21 [Example 157, 1-(but-3-enyl)-7-[N-(4-fluorobenzyl)-N-methyl]amino-2,3-dimethyl-1H-pyrrolo[2,3-c]pyridine hydrochloride] | 380
18 | Cc1c(C)n(Cc2ccc(Cl)cc2)c2c(CN(C)c3ccc(F)cc3)nccc12 [Example 113, N-[1-(4-chlorobenzyl)-2,3-dimethyl-1H-pyrrolo[2,3-c]pyridin-7-ylmethyl]-N-(4-fluorophenyl)-methylamine hydrochloride] | 327
19 | C=CCn1c(C)c(C)c2ccnc(NCc3ccccc3)c21 [Example 176, 1-allyl-7-benzylamino-2,3-dimethyl-1H-pyrrolo[2,3-c]pyridine hydrochloride] | 260
20 | Cc1c(C)n(CCC(C)Cl)c2c(N3CCc4ccccc4C3)nccc12 (centres unmarked) [Example 513, 1-(3-chlorobutyl)-7-(1,2,3,4-tetrahydroisoquinolin-2-yl)-2,3-dimethyl-1H-pyrrolo[2,3-c]pyridine hydrochloride] | 74
21 | C=CCn1c(C)c(C)c2ccnc(N3CCc4ccccc4C3)c21 [Example 487, 1-allyl-7-(1,2,3,4-tetrahydroisoquinolin-2-yl)-2,3-dimethyl-1H-pyrrolo[2,3-c]pyridine methanesulfonate] | 4
22 | Cc1c(C)n(CC2CC2)c2c(N3CCc4ccccc4C3)nccc12 [Example 497, 1-cyclopropylmethyl-7-(1,2,3,4-tetrahydroisoquinolin-2-yl)-2,3-dimethyl-1H-pyrrolo[2,3-c]pyridine hydrochloride] | 320
23 | Cc1c(C)n(Cc2ccc3ccccc3c2)c2c(N3CCc4ccccc4C3)nccc12 [Example 502, 1-(naphthalen-2-ylmethyl)-7-(1,2,3,4-tetrahydroisoquinolin-2-yl)-2,3-dimethyl-1H-pyrrolo[2,3-c]pyridine hydrochloride] | 300
24 | COc1cccc(Cn2c(C)c(C)c3cc(C(=O)N4CCSCC4)nc(N4CCc5ccccc5C4)c32)c1 [Example 784, [7-(3,4-dihydro-1H-isoquinolin-2-yl)-1-(3-methoxybenzyl)-2,3-dimethyl-1H-pyrrolo[2,3-c]pyridin-5-yl]-(thiomorpholin-1-yl)-methanone hydrochloride] | 202

Continued, values first:

Row | IC50 [nM] | Molecule
25 | 231 | COC(=O)c1cc2c(C)c(C)n(Cc3ccccc3)c2c(N2CCc3ccccc3C2)n1 [Example 743, 1-benzyl-7-(3,4-dihydro-1H-isoquinolin-2-yl)-2,3-dimethyl-1H-pyrrolo[2,3-c]pyridin-5-carboxylic acid methyl ester]
26 | 373 | C=CCn1c(C)c(C)c2cc(C(=O)NCc3ccc4c(c3)OCO4)nc(N3CCc4ccccc4C3)c21 [Example 760, 1-allyl-7-(3,4-dihydro-1H-isoquinolin-2-yl)-2,3-dimethyl-N-(benzo[1,3]dioxol-5-ylmethyl)-1H-pyrrolo[2,3-c]pyridin-5-carboxamide hydrochloride]
27 | 29 | Cc1c(C)n(CC(C)C)c2c(N3CCc4ccccc4C3)nc(C(=O)N3CCNCC3)cc12 [Example 815, [7-(3,4-dihydro-1H-isoquinolin-2-yl)-1-isobutyl-2,3-dimethyl-1H-pyrrolo[2,3-c]pyridin-5-yl]-(piperazin-1-yl)-methanone hydrochloride]
28 | 54 | Cc1c(C)n(Cc2cccc(Cl)c2)c2c(N3CCc4ccccc4C3)nc(C(=O)O)cc12 [Example 735, 1-(3-chlorobenzyl)-7-(3,4-dihydro-1H-isoquinolin-2-yl)-2,3-dimethyl-1H-pyrrolo[2,3-c]pyridin-5-carboxylic acid]
29 | 366 | COCCn1c(C)c(C)c2cc(C(=O)O)nc(N3CCc4ccccc4C3)c21 [Example 734, 7-(3,4-dihydro-1H-isoquinolin-2-yl)-1-(2-methoxyethyl)-2,3-dimethyl-1H-pyrrolo[2,3-c]pyridin-5-carboxylic acid]
30 | 31 | Cc1c(C)n(Cc2cccc(F)c2)c2c(N3CCc4ccccc4C3)nc(C(=O)N3CCN(C)CC3)cc12 [Example 832, [7-(3,4-dihydro-1H-isoquinolin-2-yl)-1-(3-fluorobenzyl)-2,3-dimethyl-1H-pyrrolo[2,3-c]pyridin-5-yl]-(4-methylpiperazin-1-yl)-methanone hydrochloride]
31 | 23 | COc1cccc(Cn2c(C)c(C)c3cc(C(=O)N4CCNCC4)nc(N4CCc5ccccc5C4)c32)c1 [Example 822, [7-(3,4-dihydro-1H-isoquinolin-2-yl)-1-(3-methoxybenzyl)-2,3-dimethyl-1H-pyrrolo[2,3-c]pyridin-5-yl]-(piperazin-1-yl)-methanone hydrochloride]
32 | 90 | Cc1c(C)n(Cc2ccccc2)c2c(NCc3ccc(F)cc3)nc(C(=O)N3CCOCC3)cc12 [Example 909, [1-benzyl-7-(4-fluorobenzylamino)-2,3-dimethyl-1H-pyrrolo[2,3-c]pyridin-5-yl]-(morpholin-4-yl)-methanone hydrochloride]
33 | 16 | CCN1CCN(C(=O)c2cc3c(C)c(C)n(CC)c3c(N3CCc4ccccc4C3)n2)CC1 [Example 826, [7-(3,4-dihydro-1H-isoquinolin-2-yl)-1-ethyl-2,3-dimethyl-1H-pyrrolo[2,3-c]pyridin-5-yl]-(4-ethylpiperazin-1-yl)-methanone hydrochloride]
34 | 122 | Cc1[nH]c2c(N3CCc4ccccc4C3)nc(C(=O)N3CCCCC3)cc2c1C [Example 791, [7-(3,4-dihydro-1H-isoquinolin-2-yl)-2,3-dimethyl-1H-pyrrolo[2,3-c]pyridin-5-yl]-(piperidin-1-yl)-methanone hydrochloride]
35 | 125 | COc1cccc(Cn2c(C)c(C)c3cc(C(=O)N4CCOCC4)nc(N4CCc5ccccc5C4)c32)c1 [Example 780, [7-(3,4-dihydro-1H-isoquinolin-2-yl)-1-(3-methoxybenzyl)-2,3-dimethyl-1H-pyrrolo[2,3-c]pyridin-5-yl]-(morpholin-4-yl)-methanone hydrochloride]

Reference: patent US7662832B2, “Pyrrolo[2,3-c]pyridine derivatives and processes for the preparation thereof” (priority 2004, dated 2010)
